Laboratory results as given in ChEMBL document CHEMBL3232866, “Design of novel potent antihyperlipidemic agents with antioxidant/anti-inflammatory properties: exploiting phenothiazine's strong antioxidant activity” (J Med Chem, 2014).
Calls of active or inactive are those of the source. The calls are words filed in the database; no cut-off is given here.

Key:
[1] = Antioxidant activity in rat liver microsome membrane assessed as inhibition of lipid peroxidation after 45 mins by TBARS-based spectrophotometric assay; assay type: functional, microsomes
[2] = tested on: Radical scavenging activity; test: Antioxidant activity assessed as DPPH radical scavenging activity after 30 mins; assay type: functional
Rattus norvegicus [3] = test: In vivo antidyslipidemic activity against Triton WR 1339-induced hyperlipidemic Wistar rat model assessed as decrease in triglyceride level in plasma at 56 umol/kg, ip administered as single dose 1 hr after Triton WR 1339 challenge measured after 24 hrs; assay type: functional
Rattus norvegicus [4] = test: In vivo antidyslipidemic activity against Triton WR 1339-induced hyperlipidemic Wistar rat model assessed as decrease in LDL-cholesterol level in plasma at 56 umol/kg, ip administered as single dose 1 hr after Triton WR 1339 challenge measured after 24 hrs; assay type: functional
Rattus norvegicus [5] = test: In vivo antidyslipidemic activity against Triton WR 1339-induced hyperlipidemic Wistar rat model assessed as decrease in total cholesterol level in plasma at 56 umol/kg, ip administered as single dose 1 hr after Triton WR 1339 challenge measured after 24 hrs; assay type: functional
[6] = target: T1, Prostaglandin G/H synthase 1 (Bos taurus) (UniProt O62664); test: Inhibition of bovine COX-1 assessed as PGF2-alpha formation using arachidonic acid as substrate at 20 uM by enzyme immunoassay
T1 sequence (whole entry): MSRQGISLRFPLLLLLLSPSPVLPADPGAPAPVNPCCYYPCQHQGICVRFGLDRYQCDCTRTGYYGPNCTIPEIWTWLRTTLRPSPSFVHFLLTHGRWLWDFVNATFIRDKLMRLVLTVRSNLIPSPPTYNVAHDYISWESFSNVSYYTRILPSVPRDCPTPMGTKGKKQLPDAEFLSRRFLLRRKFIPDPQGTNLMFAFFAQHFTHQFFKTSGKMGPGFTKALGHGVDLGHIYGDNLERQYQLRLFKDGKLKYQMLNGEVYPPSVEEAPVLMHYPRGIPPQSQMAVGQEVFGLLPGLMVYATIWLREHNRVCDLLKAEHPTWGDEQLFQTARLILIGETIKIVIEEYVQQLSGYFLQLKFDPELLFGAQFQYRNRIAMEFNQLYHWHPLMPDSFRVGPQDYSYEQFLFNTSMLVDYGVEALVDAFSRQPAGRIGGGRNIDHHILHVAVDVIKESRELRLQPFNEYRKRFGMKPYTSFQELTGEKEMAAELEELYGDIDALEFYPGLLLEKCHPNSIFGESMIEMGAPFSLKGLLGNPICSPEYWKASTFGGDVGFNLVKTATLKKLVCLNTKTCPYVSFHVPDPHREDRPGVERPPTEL

Squalene synthase = target: T2, Squalene synthase (Rattus norvegicus, UniProt Q02769); test: (§1) Inhibition of squalene synthase in rat liver microsomes assessed as decrease in conversion of [3H]FPP to squalene
T2 sequence (Q02769 whole entry): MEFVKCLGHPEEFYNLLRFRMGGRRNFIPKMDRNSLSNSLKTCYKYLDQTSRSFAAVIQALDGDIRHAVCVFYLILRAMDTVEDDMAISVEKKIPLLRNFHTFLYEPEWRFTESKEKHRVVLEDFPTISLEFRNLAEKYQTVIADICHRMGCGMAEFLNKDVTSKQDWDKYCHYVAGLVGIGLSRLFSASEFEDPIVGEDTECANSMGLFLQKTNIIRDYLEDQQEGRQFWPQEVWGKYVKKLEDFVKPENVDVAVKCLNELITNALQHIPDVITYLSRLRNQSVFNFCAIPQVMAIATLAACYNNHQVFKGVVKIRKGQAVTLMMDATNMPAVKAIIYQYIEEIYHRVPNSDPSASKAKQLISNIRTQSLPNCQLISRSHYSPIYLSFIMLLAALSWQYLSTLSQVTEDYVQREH

[7] = target: T3, Squalene synthase (Rattus norvegicus) (UniProt Q02769); test: as §1
T3 sequence (whole entry): T2 sequence (Q02769 whole entry)

[8] = tested on: Radical scavenging activity; test: Antioxidant activity assessed as DPPH radical scavenging activity up to 50 uM measured within 15 mins; assay type: functional
Glycine max = test: Inhibition of soybean lipoxygenase using sodium linoleate as substrate up to 100 uM measured for 6 mins
Homo sapiens [9] = species on record: Homo sapiens; test: Antioxidant activity against CuSO4-induced human LDL oxidation assessed as prolongation of lag time by spectrophotometric analysis; assay type: functional
Homo sapiens [10] = species on record: Homo sapiens; test: Antioxidant activity against CuSO4-induced human LDL oxidation assessed as increase in lag time at 1 uM by spectrophotometric analysis; assay type: functional
Homo sapiens [11] = species on record: Homo sapiens; test: Antioxidant activity against CuSO4-induced human LDL oxidation assessed as increase in lag time at 0.25 uM by spectrophotometric analysis; assay type: functional
Homo sapiens [12] = species on record: Homo sapiens; test: Antioxidant activity against CuSO4-induced human LDL oxidation assessed as inhibition of rate of conjugate diene formation at 0.50 uM by spectrophotometric analysis; assay type: functional
Homo sapiens [13] = species on record: Homo sapiens; test: Antioxidant activity against CuSO4-induced human LDL oxidation assessed as inhibition of rate of conjugate diene formation at 0.25 uM by spectrophotometric analysis; assay type: functional
Homo sapiens [14] = species on record: Homo sapiens; test: Antioxidant activity against CuSO4-induced human LDL oxidation assessed as delta-lag time at 0.25 uM by spectrophotometric analysis; assay type: functional
Homo sapiens [15] = species on record: Homo sapiens; test: Antioxidant activity against CuSO4-induced human LDL oxidation assessed as lag time at 0.50 uM by spectrophotometric analysis (reference value: 113 mins); assay type: functional
Homo sapiens [16] = species on record: Homo sapiens; test: Antioxidant activity against CuSO4-induced human LDL oxidation assessed as lag time at 0.25 uM by spectrophotometric analysis (reference value: 113 mins); assay type: functional
Homo sapiens [17] = species on record: Homo sapiens; test: Antioxidant activity against CuSO4-induced human LDL oxidation assessed as increase in lag time at 0.50 uM by spectrophotometric analysis; assay type: functional
Homo sapiens [18] = species on record: Homo sapiens; test: Antioxidant activity against CuSO4-induced human LDL oxidation assessed as delta-lag time at 0.50 uM by spectrophotometric analysis; assay type: functional
Homo sapiens [19] = species on record: Homo sapiens; test: Antioxidant activity against CuSO4-induced human LDL oxidation assessed as inhibition of rate of conjugate diene formation at 1 uM by spectrophotometric analysis; assay type: functional
Mus musculus = test: In vivo antiinflammatory activity in mouse assessed as decrease in carrageenan-induced paw edema at 0.30 mmol/kg, ip administered immediately after carrageenan injection measured after 3.5 hrs; assay type: functional
[20] = Inhibition of soybean lipoxygenase using sodium linoleate as substrate measured for 6 mins

| SMILES | IC50 [1] [µM] | IC50 [2] [µM] | inhibition in vivo at 56 µmol/kg (Rattus norvegicus [3]) [%] | inhibition in vivo at 56 µmol/kg (Rattus norvegicus [4]) [%] | inhibition in vivo at 56 µmol/kg (Rattus norvegicus [5]) [%] | inhibition [6] [%] | IC50 (Squalene synthase) [µM] | inhibition [7] | inhibition (Glycine max) | other results |
| --- | --- | --- | --- | --- | --- | --- | --- | --- | --- | --- |
| CN1CC(O)(c2ccc(-c3ccccc3)cc2)OC2CCCCC21 (configuration not stated) | 450 | > 400 | 49 | 51 | 54 |  |  |  |  |  |
| CN1CC(O)(c2ccc(-c3ccccc3)cc2)Oc2ccccc21 (configuration not stated) | 9 | 119 | 73 | 74 | 62 | 36 |  |  |  |  |
| CN1CC(O)(c2ccc(-c3ccccc3)cc2)Sc2ccccc21 (configuration not stated) | 83 | 271 | 38 | 26 | 58 | 90 |  |  |  |  |
| CN1CC(O)(c2ccc3c(c2)Nc2ccccc2S3)Oc2ccccc21 (configuration not stated) | 1.6 | 337 |  |  |  |  | 3.3 | Dose-dependent effect |  | Activity [8]: Active |
| CC1=CSC(O)(c2ccc3c(c2)Nc2ccccc2S3)CN1C=O (configuration not stated) | 0.33 | 150 |  |  |  |  | > 50 |  |  | Activity [8]: Active |
| OC1(c2ccc3c(c2)Nc2ccccc2S3)CN2CCCCC2CO1 (racemic) | 0.55 | 184 | 63 | 58 | 36 | 55 | 2.7 | Dose-dependent effect | inactive | Activity (Homo sapiens [9]): Dose-dependent effect; Activity (Homo sapiens [10]): 100%; Activity (Homo sapiens [11]): 35%; inhibition (Homo sapiens [12]): 20%; inhibition (Homo sapiens [13]): 0%; TIME (Homo sapiens [14]): 0.65 h; TIME (Homo sapiens [15]): 3.38 h; TIME (Homo sapiens [16]): 2.53 h; Activity (Homo sapiens [17]): 80%; TIME (Homo sapiens [18]): 1.5 h; inhibition (Homo sapiens [19]): 100%; Activity [8]: Active |
| CN1CCOC(O)(c2ccc3c(c2)N(C)c2ccccc2S3)C1 (racemic) | 70.2 | > 400 |  |  |  | 17 | 3.6 | Dose-dependent effect | inactive |  |
| CN1c2ccccc2Sc2ccc(C3(O)CN4CCCCC4CO3)cc21 (racemic) | 68 | > 400 | 71 | 26 | 55 |  | 2.3 | Dose-dependent effect | inactive |  |
| CN1c2ccccc2Sc2ccc(C3(O)CN(C)C4CCCCC4O3)cc21 (racemic) | 57 | > 400 | 27 | 34 | 26 |  | 4.7 | Dose-dependent effect | inactive |  |
| CC(=O)N1c2ccccc2Sc2ccc(C3(O)CN(C)CCO3)cc21 (racemic) | 36 | > 400 | 76 | 48 | 63 |  | 25.3 | Dose-dependent effect | inactive |  |
| CC(=O)N1c2ccccc2Sc2ccc(C3(O)CN4CCCCC4CO3)cc21 (racemic) | 12 | > 400 |  |  |  |  | 16.4 | Dose-dependent effect | inactive |  |
| CC(=O)N1c2ccccc2Sc2ccc(C3(O)CN(C)C4CCCCC4O3)cc21 (racemic) | 14 | > 400 |  |  |  |  | 1.6 | Dose-dependent effect | inactive |  |
| COc1ccc2c(c1)c(CC(=O)O)c(C)n2C(=O)c1ccc(Cl)cc1 [INDOMETHACIN] |  |  |  |  |  | 100 |  |  |  | inhibition in vivo at 300 µmol/kg (Mus musculus): 54% |
| COc1ccc2cc([C@H](C)C(=O)O)ccc2c1 [NAPROXEN] |  |  |  |  |  | 30 |  |  |  | inhibition in vivo at 300 µmol/kg (Mus musculus): 51%; IC50 [20]: 24 µM |
| CC(C)(Sc1cc(C(C)(C)C)c(O)c(C(C)(C)C)c1)Sc1cc(C(C)(C)C)c(O)c(C(C)(C)C)c1 [PROBUCOL] | > 1000 | 234 | 11 | 18 | 18 |  |  |  |  |  |
| O=c1c(O)c(-c2ccc(O)c(O)c2)oc2cc(O)cc(O)c12 [QUERCETIN] | 20 | 96 |  |  |  |  |  |  |  |  |
| CCC(C)(C)C(=O)O[C@H]1C[C@@H](C)C=C2C=C[C@H](C)[C@H](CC[C@@H]3C[C@@H](O)CC(=O)O3)[C@H]21 [SIMVASTATIN] |  |  | 0 | 70 | 75 |  |  |  |  |  |
